{"source": "patent US5508311A", "about": "“Aliphatic propargylamines as selective MAO-B inhibitors and as neuroprotective agents” (University of Saskatchewan, priority 1993, dated 1996)", "key": {"monoamine oxidase": {"target": "monoamine oxidase", "assay": "Inhibition of rat liver monoamine oxidase deamination of dopamine (DA, mixed-type MAO A and B substrate) in vitro", "assay_type": "biochemical", "settings": "substrate DA (5 × 10^-4 M), average of at least 3 independent experiments", "method": "(§1) The aliphatic propargylamine inhibitors (from 1×10^-10 M to 1×10^-4 M) were preincubated with the MAO for 20 min. at ambient room temperature and then the residual enzyme activities were determined by addition of the substrates, followed by further incubation at 37° C. for 30 min. The enzymatic reactions were terminated by the addition of citric acid and the aldehyde products were extracted with toluene: ethyl acetate (1:1, v/v) and the radio-activities assessed in a scintillation counter."}, "MAO-B [1]": {"target": "T1, MAO-B (Rattus norvegicus, UniProt P19643)", "T1 sequence (P19643 1-520)": "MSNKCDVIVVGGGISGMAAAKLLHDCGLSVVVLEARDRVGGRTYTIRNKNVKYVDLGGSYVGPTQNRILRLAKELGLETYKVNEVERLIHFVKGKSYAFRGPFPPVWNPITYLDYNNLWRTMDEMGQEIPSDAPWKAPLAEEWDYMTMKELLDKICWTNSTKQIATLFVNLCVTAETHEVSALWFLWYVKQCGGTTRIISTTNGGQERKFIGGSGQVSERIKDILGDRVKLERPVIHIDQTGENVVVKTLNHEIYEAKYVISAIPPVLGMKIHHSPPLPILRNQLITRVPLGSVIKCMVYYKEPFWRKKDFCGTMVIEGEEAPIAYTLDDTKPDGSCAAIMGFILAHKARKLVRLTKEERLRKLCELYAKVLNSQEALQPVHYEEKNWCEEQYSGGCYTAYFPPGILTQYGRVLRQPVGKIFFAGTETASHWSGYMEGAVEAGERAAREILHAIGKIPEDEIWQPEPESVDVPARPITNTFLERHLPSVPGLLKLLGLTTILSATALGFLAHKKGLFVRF", "assay": "biochemical", "assay_type": "biochemical", "method": "as §1"}, "dopamine neurons": {"system": "dopamine neurons", "assay": "Protection of dopamine neurons against MPTP-induced neurotoxicity in the mice brain", "assay_type": "in vivo, mouse", "excerpt": "Three days later, dopamine levels and dopamine uptake site densities (GBR bindings) were estimated."}, "MAO-B [2]": {"target": "T2, MAO-B (Mus musculus, UniProt Q8BW75)", "T2 construct": "MAO activities in the mouse brain after; from tissue", "T2 sequence (Q8BW75 1-520)": "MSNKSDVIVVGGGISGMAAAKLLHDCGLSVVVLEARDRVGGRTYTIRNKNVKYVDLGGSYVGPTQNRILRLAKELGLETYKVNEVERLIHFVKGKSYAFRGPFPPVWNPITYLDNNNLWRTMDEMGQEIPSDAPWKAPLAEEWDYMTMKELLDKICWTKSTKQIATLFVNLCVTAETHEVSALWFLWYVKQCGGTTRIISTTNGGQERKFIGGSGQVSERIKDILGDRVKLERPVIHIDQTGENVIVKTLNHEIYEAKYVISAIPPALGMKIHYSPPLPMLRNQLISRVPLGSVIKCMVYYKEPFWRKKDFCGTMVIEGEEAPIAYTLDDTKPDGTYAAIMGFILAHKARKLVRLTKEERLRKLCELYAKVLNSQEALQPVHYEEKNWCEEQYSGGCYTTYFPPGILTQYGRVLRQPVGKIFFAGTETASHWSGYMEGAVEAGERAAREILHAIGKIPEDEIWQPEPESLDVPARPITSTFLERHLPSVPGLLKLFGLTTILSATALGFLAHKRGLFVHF", "assay": "in vivo", "assay_type": "in vivo", "settings": "mouse, ip", "method": "(§2) Albino Swiss mice were used in this study. The animals were injected intraperitoneally with different doses of the aliphatic propargylamines in 100 μL saline.\n(§3) 0.5, 1, 2, 5, 10, 20, 50, 100 mg/Kg. Striata were dissected from the brai\n(§4) two hours after i.p. administration of the drugs. MAOA and MAOB activitie\n(§5) were determined immediately. The values were estimated from doseresponse"}, "[3]": {"settings": "mouse, in vivo", "excerpt": "The acute toxicity of these compounds is quite low. […]. The aliphatic side-chains of these aliphatic propargyl compounds are similar to those that exist in endogenous lipids and fatty acids and such aliphatic chains are readily oxidized in vivo. […]"}, "noradrenaline neurons": {"system": "noradrenaline neurons", "assay": "Protection of noradrenaline neurons against DSP-4 induced neurotoxicity in the mouse brain", "assay_type": "in vivo", "settings": "Experiment I, pretreatment 10 mg/Kg i.p., mean ± S.E.", "method": "The analyses of DSP-4-induced neurotoxic effects were conducted in accordance with […] and Jonsson (Eur. J. Pharmacol. 103 (1984), 269-278), hereby incorporated by reference. Mice were pretreated with M-2-PP (10 mg/Kg) and 2-HxMP (10 mg/Kg) or saline as control via i.p. administration and one hour later challenged with a single i.p. dose of DSP-4 (DSP-4: […] One week after treatment noradrenaline content in the putamen of these mice was analyzed. The results which are shown in Table 5 are mean ± S.E. of five animals in each group."}, "MAO-A [4]": {"target": "T3, MAO-A (Mus musculus, UniProt Q64133)", "T3 construct": "MAO activities in the mouse brain after; from tissue", "T3 sequence (Q64133 1-526)": "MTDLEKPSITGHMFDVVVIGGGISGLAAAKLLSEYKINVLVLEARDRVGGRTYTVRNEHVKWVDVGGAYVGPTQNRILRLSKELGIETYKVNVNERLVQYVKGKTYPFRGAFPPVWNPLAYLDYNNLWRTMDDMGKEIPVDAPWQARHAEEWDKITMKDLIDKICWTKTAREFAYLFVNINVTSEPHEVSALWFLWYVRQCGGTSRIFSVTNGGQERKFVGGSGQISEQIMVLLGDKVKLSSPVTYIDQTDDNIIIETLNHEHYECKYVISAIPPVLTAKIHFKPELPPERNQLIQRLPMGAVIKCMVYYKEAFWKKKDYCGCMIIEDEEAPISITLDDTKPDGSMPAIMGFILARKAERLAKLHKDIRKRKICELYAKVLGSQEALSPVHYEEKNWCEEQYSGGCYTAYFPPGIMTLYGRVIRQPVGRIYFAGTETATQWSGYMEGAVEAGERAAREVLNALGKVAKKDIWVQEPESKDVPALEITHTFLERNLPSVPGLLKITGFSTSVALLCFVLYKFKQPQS", "assay": "in vivo", "settings": "ip, 2 h, read-out: 5-HT ID50", "method": "as §2, §3, §4, §5"}, "MAO-A [5]": {"target": "T3, MAO-A", "assay_type": "in vivo", "settings": "mouse, in vivo, po, 10 mg/kg", "method": "Table 3 indicates the MAO activities in the mouse brain following oral administration of the aliphatic propargylamines.\nof each compound. Striata were dissected from the brain two hours after\nthe administration of the drugs. MAOA and MAOB activities were determined"}}, "data": [{"smiles": "C#CCN(C)C(C)CCC.Cl.O=C(O)C(=O)O", "note": "(stereo not shown) [Example M-2-PP, N-(2-Pentyl)-N-methylpropargylamine hydrochloride and oxalate]", "values": [{"measurement": "IC50", "setting": "monoamine oxidase", "result": 6, "unit": "µM"}, {"measurement": "Ratio MAO-A/MAO-B", "setting": "MAO-B [1]; rat, liver mitochondrial membranes", "result": 50}, {"measurement": "IC50", "setting": "MAO-B [1]; read-out: PE IC50", "result": 0.2, "unit": "µM"}, {"measurement": "Dopamine", "setting": "dopamine neurons; 0.5 mg/Kg + MPTP", "result": 8.3, "unit": "μg/gm"}, {"measurement": "Dopamine binding site", "setting": "dopamine neurons; 0.5 mg/Kg + MPTP", "result": 312, "unit": "pmol/mg"}, {"measurement": "Dopamine", "setting": "dopamine neurons; 2.5 mg/Kg + MPTP", "result": 8.9, "unit": "μg/gm"}, {"measurement": "Dopamine binding site", "setting": "dopamine neurons; 2.5 mg/Kg + MPTP", "result": 306, "unit": "pmol/mg"}, {"measurement": "MAO-B ID50 (mg/Kg) / IC50 (1 × 10^-6 M)", "setting": "MAO-B [2]; in vivo", "result": 2.5}, {"measurement": "inhibition of brain MAO-B activity in vivo (in words)", "setting": "MAO-B [2]; in vivo", "result": "more potent than the longer chain analogs at inhibiting brain MAO-B activity"}, {"measurement": "Ratio MAO-A/MAO-B", "setting": "MAO-B [2]; in vivo, 120 min", "result": 50}, {"measurement": "ED50", "setting": "MAO-B [2]; 2 h, read-out: PE ID50", "result": 0.5, "unit": "mg/kg"}, {"measurement": "fatality after oral administration", "setting": "[3]", "result": "no fatality"}, {"measurement": "Noradrenaline in putamen", "setting": "noradrenaline neurons; DSP-4 50 mg/Kg, p < 0.01 vs DSP-4 (DSP-4 alone 33)", "result": "90 ± 0.07", "unit": "%"}, {"measurement": "Noradrenaline in putamen", "setting": "noradrenaline neurons; saline, no DSP-4", "result": "111 ± 0.09", "unit": "%"}, {"measurement": "ED50", "setting": "MAO-A [4]", "result": 25, "unit": "mg/kg"}, {"measurement": "Relative activity 5-HT", "setting": "MAO-A [5]", "result": "89 ± 15"}]}]}
